# Tested on: DU-145 cells
# Experiment: Cell proliferation assay (Alamar-Blue) in DU-145 cells
# Format: cell-based
# Conditions: 72 h; DU-145 human prostate carcinoma cells, 3 days incubation, Alamar-Blue fluorescence
# Description: Protocol for Cell Proliferation Assay:
# This homogeneous assay involves simply adding a single reagent, the Alamar-Blue to the cell culture and measuring the fluorescence intensity (excitation wavelength=530 nm, emission wavelength=590 nm) after an incubation step. The Alamar-Blue reagent utilizes the redox dye resazurin, which is not fluorescent, but upon reduction by metabolically active cells is converted into a highly fluorescent product (resorufin). A decrease in fluorescence in the presence of a test compound indicates reduced proliferation. This change in signal is proportional to the number of viable cells and used as a measure of relative cytotoxicity. Therefore, the fluorescence intensity observed in this assay is a true measure of the viable proliferative cells.
# • 2 mM stock of Paclitaxel in DMSO. • DMSO—(dimethylsulfoxide) (Panreac, Cat. number 141954.1611) • Resazurin sodium salt (Sigma, R-7071). 50 mM stock in DMSO. Equipment • Biomek FX Laboratory Automated Workstation (Beckman Coulter Inc., Fullerton, Calif.) • CO2 incubator (VWR Science, USA) • Bright line Hemacytometer (Z359629, Sigma, Ill., USA) Materials • 384-deep well plates (Greiner, No 781270) • 384-well optical bottom tissue culture plates (Greiner, No. 82051-282) Propagation CONDITIONS: 37° C., air 95%; carbon dioxide (CO2) 5%, humidified atmosphere. SUBCULTURING: • Cells were grown in 175 cm^2 flasks to 90-100% of confluency. • Culture media (RPMI-1640 (Paneco, C310)+10% FBS (fetal bovine serum)) was aspirated and cell layer was briefly rinsed with 0.53 mM EDTA solution to remove all traces of serum. • 2 ml of 0.2% trypsin/0.53 mM EDTA (ethylenediaminetetraacetic acid) solution was added to cells. • Flasks were returned to incubator for 5 rain to allow cells detachment • Add 6.0 ml of complete growth medium. • Single cell suspension was created by gently pipetting. • Cells are counted using a Hematocytometer and suspension with desirable cell concentration is prepared.
# To test proliferation inhibition DU-145 cells were plated in 384-well plate at the density 4000 cells/well. Next day 4 mM solutions of compounds in DMSO were diluted 100 times in medium and added to cells to final concentration 20 uM (40 ul of cells+40 ul of compounds). Taxol at final concentration 1 uM was used as positive control. Cells were incubated with compounds for 3 days. After that Alamar-Blue was added to cells to a final concentration of 50 uM. After incubation for 4-6 hours at 37° C., fluorescence in plate was read using fluorescence plate reader Wallac 1420 (530 nm excitation filter, 590 nm emission filter). Proliferation inhibition was calculated using formula: % INH=100*((Fnegative−compound signal)/(Fnegative−Fpositive)), • Fnegative—DMSO was added to cells (viable cells) • Fpositive—taxol (1 uM) was added to cells (number of cells at the first day of incubation)
row,SMILES,IC50 [µM]
1,"CCCCn1c(-c2nonc2NC(=O)c2ccccc2Cl)nc2ccccc21 [Example 1, 2-Chloro-N^1-[4-(1-butyl-1H-1,3-benzimidazol-2-yl)-1,2,5-oxadiazol-3-yl]benzamide]",0.29
2,"CC(C)Cn1c(-c2nonc2NC(=O)c2ccccc2Cl)nc2ccccc21 [Example 2, 2-Chloro-N^1-[4-(1-isobutyl-1H-1,3-benzimidazol-2-yl)-1,2,5-oxadiazol-3-yl]benzamide]",0.28
3,"C=CCn1c(-c2nonc2NC(=O)c2ccccc2Cl)nc2ccccc21 [Example 3, 2-Chloro-N^1-[4-(1-allyl-1H-1,3-benzimidazol-2-yl)-1,2,5-oxadiazol-3-yl]benzamide]",0.89
4,"CCOc1ccccc1C(=O)Nc1nonc1-c1ccc(OC)cc1 [Example 5, 2-Ethoxy-N^1-[4-(4-methoxyphenyl)-1,2,5-oxadiazol-3-yl]benzamide]",0.98
5,"CCCOc1ccccc1C(=O)Nc1nonc1-c1ccc(OC)cc1 [Example 6, 2-Propoxy-N^1-[4-(4-methoxyphenyl)-1,2,5-oxadiazol-3-yl]benzamide]",0.85
6,"CCOc1ccc(-c2nonc2NC(=O)c2ccccc2OCC)cc1 [Example 7, 2-Ethoxy-N^1-[4-(4-ethoxyphenyl)-1,2,5-oxadiazol-3-yl]benzamide]",0.12
7,"CCCOc1ccccc1C(=O)Nc1nonc1-c1ccc(OCC)cc1 [Example 8, 2-Propoxy-N^1-[4-(4-ethoxyphenyl)-1,2,5-oxadiazol-3-yl]benzamide]",0.34
8,"CCCCOc1ccccc1C(=O)Nc1nonc1-c1ccc(OCC)cc1 [Example 9, 2-Butoxy-N^1-[4-(4-ethoxyphenyl)-1,2,5-oxadiazol-3-yl]benzamide]",0.85
9,"CCOc1ccc(-c2nonc2NC(=O)c2ccccc2OCC)cc1C [Example 10, 2-Ethoxy-N^1-[4-(4-ethoxy-3-methylphenyl)-1,2,5-oxadiazol-3-yl]benzamide]",0.86
10,"CCCOc1ccccc1C(=O)Nc1nonc1-c1ccc(OCC)c(C)c1 [Example 11, 2-Propoxy-N^1-[4-(4-ethoxy-3-methylphenyl)-1,2,5-oxadiazol-3-yl]benzamide]",0.93
11,"CCOc1ccc(-c2nonc2NC(=O)c2oc3ccc(Cl)cc3c2C)cc1 [Example 12, 5-chloro-N^2-[4-(4-ethoxyphenyl)-1,2,5-oxadiazol-3-yl]-3-methyl-1-benzofuran-2-carboxamide]",0.95

# Same assay, conditions: DU-145 human prostate carcinoma cells, 3 days incubation, Alamar-Blue fluorescence
row,SMILES,IC50 [µM]
1,"CCOC(=O)Cn1c(-c2nonc2NC(=O)c2ccccc2F)nc2ccccc21 [Example 4, Ethyl 2-(2-4-[(2-fluorobenzoyl)amino]-1,2,5-oxadiazol-3-yl-1H-1,3-benzimidazol-1-yl)acetate]",0.32
